In US20210085623A1, “Formulation” (Medherant Limited, priority 2017, published 2021):

Legend:
[1] = Passive release of ibuprofen from pressure sensitive adhesive patch, diffusion cells; settings: Nylon membrane, patch without excipients
Text: Prior to determination of active pharmaceutical ingredient (API) diffusion across skin mimicking membranes, a passive release of ibuprofen from the pressure sensitive adhesive must be verified. […] Such an experiment can be performed using non-rate-limiting membranes, for example porous silicone, Nylon or polytetrafluoroethylene (PTFE). In this study, Nylon was employed as the test model for passive release.
All further mentioned patches contain 10 wt % of API. Unless stated otherwise, 6 sample patches were analysed in parallel. […] Experimental conditions are listed below.
Patch components: Pressure sensitive adhesive, ibuprofen, […]. Patch thickness: 300 μm Membrane type: Nylon, pore size 0.45 μm Apparatus: diffusion cells Acceptor medium: mixture of pH 7.4 PBS/2-(2-ethoxyethoxy) ethanol (90/10 vol.) […]

[2] = Permeation of ibuprofen from patches through Strat-M membranes, diffusion cells; type: in vitro ADME; settings: Strat-M membrane, patch without excipients
Text: In order to determine the necessity for further modification of ibuprofen patches with excipients, permeation rates of the API were observed using Strat-M membranes. Strat-M membranes are produced by Merck Millipore as a synthetic transdermal diffusion model to avoid animal or human skin testing. There is a correlation tool on a dedicated website allowing a comparison with human skin. Permeation profiles can vary depending on a drug, but it proves that Strat-M membranes can be employed as a reliable evaluation of any transdermal system in terms of human skin penetration. It must be said that penetration profiles in the case of human skin may differ from the aforementioned membrane, but allows predicting the efficacy of patches with certain reliability.
Patches tested in this study are from the same batch as employed in release experiments and were run under the same conditions. Permeation profiles and release profiles of ibuprofen through Strat-M membranes are depicted in FIGS. 1 and 2, respectively. […]

- Total Released Amount ([1]; 1 h): 227.93 μg cm^−2
- Total Released Amount ([1]; 2 h): 438.23 μg cm^−2
- Total Released Amount ([1]; 4 h): 726.09 μg cm^−2
- Total Released Amount ([1]; 6 h): 967.49 μg cm^−2
- Total Released Amount ([1]; 8 h): 1124.13 μg cm^−2
- Total Released Amount ([1]; 10 h): 1257.46 μg cm^−2
- Total Released Amount ([1]; 12 h): 1397.34 μg cm^−2
- Total Released Amount ([1]; 24 h): 1650.21 μg cm^−2
- Flux ([2]; 1 h): 1.29 μg cm^−2 h^−1
- Total Amount ([2]; 1 h): 1.291 μg cm^−2
- Flux ([2]; 2 h): 2.75 μg cm^−2 h^−1
- Total Amount ([2]; 2 h): 4.044 μg cm^−2
- Flux ([2]; 4 h): 2.71 μg cm^−2 h^−1
- Total Amount ([2]; 4 h): 9.466 μg cm^−2
- Flux ([2]; 6 h): 3.56 μg cm^−2 h^−1
- Total Amount ([2]; 6 h): 16.595 μg cm^−2
- Flux ([2]; 8 h): 3.91 μg cm^−2 h^−1
- Total Amount ([2]; 8 h): 24.424 μg cm^−2
- Flux ([2]; 10 h): 5.82 μg cm^−2 h^−1
- Total Amount ([2]; 10 h): 36.066 μg cm^−2
- Flux ([2]; 12 h): 6.92 μg cm^−2 h^−1
- Total Amount ([2]; 12 h): 49.915 μg cm^−2
- Flux ([2]; 24 h): 4.96 μg cm^−2 h^−1
- Total Amount ([2]; 24 h): 109.467 μg cm^−2
Structure (SMILES): CC(C)Cc1ccc(C(C)C(=O)O)cc1 (stereo not drawn) [ibuprofen]
